Laboratory results: US8222218B2, “Cyclopropanated carbohydrates” (Seton Hall University, priority 2008, dated 2012)
Like-named read-outs stand apart in the source and are kept apart here.

Legend:
Assay type in all cases: in vivo
MES-induced seizures = test: Maximal Electroshock Seizure (MES) test, mice; details: mice, i.p.; for responders at 30 mg/kg / responders at 100 mg/kg / responders at 300 mg/kg: Mus musculus, ip
Source text: The MES test is a model for generalized tonic-clonic seizures. The seizures are highly reproducible and electrophysiologically consistent with human seizures. The test provides information about a compound's ability to prevent the spread of seizure when all neuronal circuits of the brain are maximally active. 60 Hz of alternating current (50 mA in mice, 150 mA in rats) is applied for 2 seconds via corneal electrodes that have been treated with an electrolyte solution containing an anesthetic (0.5% tetracaine HCl). Mice are tested at a variety of intervals after an i.p. injection of […] solution of the test compound (commonly in a 0.5% solution of methylcellulose) at 30, 100, and 300 mg/kg doses. Rats are examined after a 30 mg/kg (per os, p.o.) dose that is applied in a volume of 0.04 mL/g. An animal is considered “protected” from MES-induced seizures upon removal of the hind limb extensor component of the seizure.
(§1) Male and female albino CF1 mice (18-25 g, Charles River, Portage, Mich.) and male albino Sprague-Dawley rats (275-300 g, kindling test; 100-150 g all other tests; Charles River, Raleigh, N.C.) were used as experimental animals.

[1] = test system: metrazole-induced clonic seizures; test: Subcutaneous Metrazole Seizure Threshold Test (scMET), mice; details: mice; for responders at 30 mg/kg / responders at 100 mg/kg / responders at 300 mg/kg: Mus musculus, sc
Procedure: The subcutaneous injection of metrazole, which is a convulsant, produces clonic seizures in laboratory animals. The scMET test is designed to identify compounds that raise the seizure threshold of an animal. Mice are pretreated with test compound at 30, 100, and 300 mg/kg doses in a similar manner to the MES test. Rats are treated with a 50 mg/kg dose (p.o.). At the previously determined TPE of the test compound, the dose of metrazole that will induce convulsions in 97% of animals (CD97: 85 mg/kg mice) is injected into the loose fold of the skin in the midline of the neck. The animals are placed in isolation cages to minimize stress and observed for the next 30 minutes for the presence or absence of seizures. An episode of clonic spasms (approximately 3-5 seconds) of the fore and/or hindlimbs, jaws or vibrissae is taken as the endpoint.
as §1

[2] = Acute toxicity, minimal motor impairment (rotorod), mice; details: mice, rotorod; for TOX 30 0.5 h (animals toxic/tested) / TOX 30 4 h (animals toxic/tested): 30 mg/kg; for TOX 100 0.5 h (animals toxic/tested) / TOX 100 4 h (animals toxic/tested): 100 mg/kg; for TOX 300 0.5 h (animals toxic/tested) / TOX 300 4 h (animals toxic/tested): 300 mg/kg
Procedure: Toxicity was measured using the minimal motor impairment test described below.
Animals are monitored for overt signs of impaired neurological or muscular function to assess a compound's toxicity. In mice, the rotorod procedure is used to disclose minimal muscular or neurological impairment. When a mouse is placed on a rotating rod (6 rpm), the animal can maintain its equilibrium for long periods of time. The animal is considered toxic if it falls off the rotating rod three times during a 1 minute period. In rats, minimal motor deficit is indicated by ataxia, which is manifested by an abnormal, uncoordinated gait.

[3] = 30 mg/kg, 0.5 h, read-out: MES 30 0.5 h (animals protected/tested)
[4] = 30 mg/kg, 4 h, read-out: MES 30 4 h (animals protected/tested)
[5] = 100 mg/kg, 0.5 h, read-out: MES 100 0.5 h (animals protected/tested)
[6] = 100 mg/kg, 4 h, read-out: MES 100 4 h (animals protected/tested)
[7] = 300 mg/kg, 0.5 h, read-out: MES 300 0.5 h (animals protected/tested)
[8] = 300 mg/kg, 4 h, read-out: MES 300 4 h (animals protected/tested)
[9] = 30 mg/kg, 0.4 h, read-out: scMET 30 0.4 h (animals protected/tested)
[10] = 30 mg/kg, 0.5 h, read-out: scMET 30 0.5 h (animals protected/tested)
[11] = 100 mg/kg, 0.4 h, read-out: scMET 100 0.4 h (animals protected/tested)
[12] = 100 mg/kg, 0.5 h, read-out: scMET 100 0.5 h (animals protected/tested)
[13] = 300 mg/kg, 0.4 h, read-out: scMET 300 0.4 h (animals protected/tested)
[14] = 300 mg/kg, 0.5 h, read-out: scMET 300 0.5 h (animals protected/tested)

Compound	responders at 30 mg/kg (MES-induced seizures; [3])	responders at 30 mg/kg (MES-induced seizures; [4])	responders at 100 mg/kg (MES-induced seizures; [5])	responders at 100 mg/kg (MES-induced seizures; [6])	responders at 300 mg/kg (MES-induced seizures; [7])	responders at 300 mg/kg (MES-induced seizures; [8])	responders at 30 mg/kg [1, 9]	responders at 30 mg/kg [1, 10]	responders at 100 mg/kg [1, 11]	responders at 100 mg/kg [1, 12]	responders at 300 mg/kg [1, 13]	responders at 300 mg/kg [1, 14]	TOX 30 0.5 h (animals toxic/tested) [2]	TOX 30 4 h (animals toxic/tested) [2]	TOX 100 0.5 h (animals toxic/tested) [2]	TOX 100 4 h (animals toxic/tested) [2]	TOX 300 0.5 h (animals toxic/tested) [2]	TOX 300 4 h (animals toxic/tested) [2]	also measured
COC(=O)C1[C@@H]2[C@@H](O)[C@@H]3OC(C)(C)OC[C@H]3O[C@H]12 (stereo partly drawn) [Compound 10, Methyl (4aR,5aS,6aR,7R,7aS)-7-hydroxy-2,2-dimethylhexahydro-4H-cyclopropa[5,6]pyrano[3,2-d][1,3]dioxine-6-carboxylate]	0%	0%	0%	0%	0%	0%	0%	0%	0%	0%	0%	0%	0/4	0/2	0/8	0/4	0/4	0/2	–
COC(=O)[C@H]1C2O[C@@H]3CO[Si](C(C)(C)C)(C(C)(C)C)O[C@@H]3[C@H](O)[C@@H]21 (stereo partly drawn) [Compound 14b, (1R,1as,2R,2aR,6aR)-4,4-di-tert-butyl-2-hydroxy-hexahydro-3,5,7-trioxa-4-silacyclopropa[b]naphthalene-1-carboxylic acid (S)-methyl ester]	–	–	–	–	–	–	–	–	–	–	–	–	0/4	0/2	2/8	0/4	4/4	0/2	MES 30 0.5 h (animals protected/tested) (MES-induced seizures; 30 mg/kg, 0.5 h): 0/1; MES 30 4 h (animals protected/tested) (MES-induced seizures; 30 mg/kg, 4 h): 0/1; MES 100 0.5 h (animals protected/tested) (MES-induced seizures; 100 mg/kg, 0.5 h): 0/3; MES 100 4 h (animals protected/tested) (MES-induced seizures; 100 mg/kg, 4 h): 0/3; MES 300 0.5 h (animals protected/tested) (MES-induced seizures; 300 mg/kg, 0.5 h): 0/1; MES 300 4 h (animals protected/tested) (MES-induced seizures; 300 mg/kg, 4 h): 0/1; scMET 30 0.4 h (animals protected/tested) ([1]; 30 mg/kg, 0.4 h): 0/1; scMET 30 0.5 h (animals protected/tested) ([1]; 30 mg/kg, 0.5 h): 0/1; scMET 100 0.4 h (animals protected/tested) ([1]; 100 mg/kg, 0.4 h): 0/1; scMET 100 0.5 h (animals protected/tested) ([1]; 100 mg/kg, 0.5 h): 0/1; scMET 300 0.4 h (animals protected/tested) ([1]; 300 mg/kg, 0.4 h): 0/1; scMET 300 0.5 h (animals protected/tested) ([1]; 300 mg/kg, 0.5 h): 0/1
CCOC(=O)C1[C@@H]2[C@@H](OS(=O)(=O)N(C)C)[C@@H]3O[C@H](c4ccc(OC)cc4)OC[C@H]3O[C@H]12 (stereo partly drawn) [Compound 17a, Ethyl (2R,4aR,5aS,6aS,7R,7aR)-7-[(dimethylsulfamoyl)oxy]-2-(4-methoxyphenyl)hexahydro-4H-cyclopropa[5,6]pyrano[3,2-d][1,3]dioxine-6-carboxylate]	0%	0%	0%	0%	0%	0%	0%	0%	0%	0%	0%	0%	0/4	0/2	0/8	0/4	0/4	0/2	–
CCOC(=O)C1[C@@H]2[C@@H](OC)[C@@H]3O[C@H](c4ccc(OC)cc4)OC[C@H]3O[C@H]12 (stereo partly drawn) [Compound 18, Ethyl (2R,4aR,5aS,6aS,7R,7aS)-7-methoxy-2-(4-methoxyphenyl)hexahydro-4H-cyclopropa[5,6]pyrano[3,2-d][1,3]dioxine-6-carboxylate]	0%	0%	0%	0%	0%	0%	0%	0%	0%	0%	0%	0%	0/4	0/2	0/8	0/4	0/4	0/2	–
CCOC(=O)C1[C@@H]2[C@@H](O)[C@@H]3O[C@H](c4ccccc4)OC[C@H]3O[C@H]12 (stereo partly drawn) [Compound 20a, Ethyl (2R,4aR,5aS,6aR,7R,7aS)-7-hydroxy-2-phenylhexahydro-4H-cyclopropa[5,6]pyrano[3,2-d][1,3]dioxine-6-carboxylate]	0%	0%	0%	0%	0%	0%	0%	0%	0%	0%	0%	0%	0/4	0/2	0/8	0/4	0/4	0/2	–
CCOC(=O)C1[C@@H]2[C@@H](O)[C@@H]3O[C@H](c4ccc(C(C)(C)C)cc4)OC[C@H]3O[C@H]12 (stereo partly drawn) [Compound 20c, Ethyl (2R,4aR,5aS,6aR,7R,7aS)-2-(4-tert-butylphenyl)-7-hydroxyhexahydro-4H-cyclopropa[5,6]pyrano[3,2-d][1,3]dioxine-6-carboxylate]	0%	0%	0%	0%	0%	0%	0%	0%	0%	0%	0%	0%	0/4	0/2	0/8	0/4	0/4	0/2	–
CCOC(=O)C1[C@@H]2[C@@H](O)[C@@H]3O[C@H](c4cccc(OC)c4)OC[C@H]3O[C@H]12 (stereo partly drawn) [Compound 20e, Ethyl (2R,4aR,5aS,6aR,7R,7aS)-7-hydroxy-2-(3-methoxyphenyl)hexahydro-4H-cyclopropa[5,6]pyrano[3,2-d][1,3]dioxine-6-carboxylate]	0%	0%	0%	0%	0%	0%	0%	0%	0%	0%	0%	0%	0/4	0/2	0/8	0/4	0/4	0/2	–
